The source of these data is patent US20230002446A1, “ANTI-INFLAMMATORY AGENTS” (The University of Sydney, priority 2019, published 2023).

Where no end group is shown, it is not given here. [ ]: non-standard residue; d: D form. Ala(3-Me-diazirin-3-yl) = CC1(C[C@H](N)C(=O)O)N=N1; PEG = not defined here

For data set [1], the system named is C57BL/6 mice. The experiment in a line: imiquimod-induced psoriasis model. It is filed as in vivo. The procedure:
FIG. 4—Peptide administration reduces local disease severity in a mouse model of psoriasis. (A) Experimental outline (B) Clinical scores of mice receiving PBS or peptide RP23 (SEQ ID NO:12) injection, compared to daily (0-4 days) topical application of glucocorticoid on the back and ear. (C) Measures of disease local to the peptide RP23 injection site. Redness was measured using an unbiased erythema meter and skin thickness by manual callipers. (D) Spleen weight at day 5 as a measure of systemic immune suppression. […] Data are presented as mean±S.E.M. Statistical significance was determined by ANOVA with Dunnett's multiple comparison test, *p<0.05, **p<0.01, ***p<0.001, ****p<0.0001.
FIG. 10. Therapeutic synergy of RP23 and topical steroid in the murine imiquimod-induced psoriasis model. Aldara cream (5% imiquimod, 57.5 mgs) was applied daily (days 0-4) to the backs of C57BL/6 female mice to induce psoriasis. Clinical scores (PASI), modified psoriasis area and severity index) of mice receiving (A) PBS or RP23 injection at day −1, with or without topical application of glucocorticoid (0.05% betamethasone dipropionate, “BD” 30 mgs) on the back at day 0 (B) PBS or RP23 injection at day 1 and topical application of glucocorticoid at day 1, in comparison to PBS injection only at day −1. Data are the means+/−SEM (n=5). Statistical significance was determined by ANOVA with Dunnett's multiple comparison test to PBS only control, *p<0.05, **p<0.01, ***p<0.001, ****p<0.0001.
The backs of 8-week old female C57BL/6 mice (Australian BioResources) were coarse shaved. A minimum of 24 hours later, 10 nmol RP23 was delivered via sub-cutaneous injection at the lower back in 200 μl phosphate buffered saline (PBS). Groups of mice acting as positive controls for disease development received injection of PBS only. One or seven days later, psoriasis-like inflammation was induced via topical application of 5% imiquimod cream (Aldara, Inova Pharmaceuticals) to the shaved back (57.5 mgs) and one ear (5 mg, divided between dorsal and ventral sides). The contralateral ear served as a negative control for imiquimod-induced inflammation. Imiquimod application was repeated daily for four consecutive days. C57BL/6 mice experience rapid weight loss (up to 20%) upon application of imiquimod cream. Supportive care was provided in the form of dietary supplementation commenced 2 days prior to imiquimod application, and intra-peritoneal injection of 300 μl sterile PBS on days two and three of imiquimod application. Disease progression was monitored for five days, by recording weight loss and grading disease of the back skin using a modified Psoriasis Area and Severity Index (PASI) clinical scoring system, that assessed only disease severity. Additionally, erythema meter (DSM II ColorMeter, Cortex Technology, Denmark) readings were taken at four quadrants on the back skin and skin backfold thickness measurements were recorded using manual callipers. Disease progression of the ear skin was determined by recording ear thickness, measured by manual callipers. As a positive control for immune suppressive therapy, groups of mice received daily topical application of betamethasone dipropionate 0.05% (MSD) cream (30 mgs on the back, 10 mgs on the ear).
Aldara cream (5% imiquimod, 57.5 mgs) was applied daily (days 0-4) to the backs of C57BL/6 female mice to induce psoriasis. Clinical scores (PASI, modified psoriasis area and severity index) of mice receiving prophylactic PBS or RP23 (at day −1), with or without topical application of glucocorticoid (0.05% betamethasone dipropionate, 30 mgs) to the back at day 0, were determined (FIG. 10A).
RP23 and BD therapy were also tested when given synergistically at a therapeutic timepoint (at day 1). Psoriasis was induced as above, but clinical scores were determined daily for 10 days after ceasing imiquimod application at day 5, to record the rate and degree of psoriasis disease resolution (FIG. 10B).

For data set [2], the system named is C57BL/6 mice. The experiment in a line: contact hypersensitivity model (DNFB-induced contact dermatitis). In kind it is in vivo. Particulars: for specific increase in ear thickness: equivalent molar amount of 10 nmol RP23, subcutaneously at the abdomen (FIG. 9); for inflammatory response (ear thickness over 72 hours): 10 nmol subcutaneously at the abdomen, compared to PBS (FIG. 8). How it is done:
FIG. 2—Peptide administration reduces inflammation in a mouse model of contact dermatitis and reduces myeloid inflammatory infiltrate. (A) Experimental outline of DNFB-induced contact dermatitis. (B) Ear thickness of peptide RP23 (SEQ ID NO:12) treated mice, repeated 3 times. […] Data are presented as mean±S.E.M. Statistical significance was determined (B) by multiple t tests (C) by ANOVA with Dunnett's multiple comparison test, *p<0.05, **p<0.01, ***p<0.001.
FIG. 3—The peptide effect is dependent on the peptide sequence and dose. (A) PBS, scrambled peptide or peptide MUC1SP ([…]; SEQ ID NO: 3) was injected subcutaneously seven days prior to sensitising C57BL/6 mice (n=5) with DNFB on the abdomen. […] (B) A comparison of the immunosuppressive effect of peptide RP23 (SEQ ID NO:12) and MUC1SP (SEQ ID NO: 3). (C) SEQ ID NO:12 suppressed immunity in a dose dependent manner. (D) Addition of GM-CSF to the SEQ ID NO:12 injection abrogated the immune suppression. Data are the means±S.E.M.
FIG. 8—Effects of peptide variants on the inflammatory response. Mice received one injection of PBS or one of the following peptides (10 nmol) subcutaneously at the abdomen (A) peptide RP23 (SEQ ID NO: 12), peptide AF594-RP23 (SEQ ID NO: 21), peptide K4-G3-MUC1SP (SEQ ID NO:22) or MUC1SP C fragment (SEQ ID NO: 2). Five days later, mice were challenged with DNFB at a distal site, on the ears. The thickness of the ears was measured over 72 hours.
FIG. 9—Effects of further peptide variants, without N-terminal methionine, on the inflammatory response in a model of contact dermatitis. Mice received one injection of PBS, RP23 (SEQ ID NO:12) (10 nmol) or one of the peptide variants indicated in the table including SEQ ID NO: 32 and 35 as described herein (equivalent molar amount of RP23), subcutaneously at the abdomen. Photoleucine replaces leucine where indicated, these molecules used for photo-crosslinking studies. Seven days later, abdominal skin was sensitised with a contact irritant (DNFB) and five days later, mice were challenged with DNFB at a distal site, on the ears. (A) Specific increase in ear thickness over 72 hours, data are the means+/−SEM (n=6). Statistical significance was determined by ANOVA with Dunnett's multiple comparison test to PBS only control, **p<0.01. (B) Specific increase in ear thickness at 24 hours post-challenge. Data are the means+/−SEM (n=6). Statistical significance was determined by t-test to relevant control, as indicated, *p<0.05, **p<0.01, ns=not significant.
The abdomens of 8-week old female C57BL/6 mice (Australian BioResources) were coarse shaved. A minimum of 24 hours later, RP23 (SEQ ID NO:12) was delivered via sub-cutaneous injection at the abdomen in 50 μl phosphate buffered saline. Seven days later, mice were topically sensitised to 1-fluoro-2,4-dinitrobenzene (DNFB, 0.5 vol %) in olive oil/acetone (1:4, v/v, 30 μl) via application to the shaved abdomen. Five days after sensitisation, mice were challenged on the ears with topical DNFB (0.25 vol %) in olive oil/acetone (1:4, v/v, 15 μl per ear). Ear thickness was measured daily using manual callipers from immediately before challenge, up to 96 hours post challenge. Positive controls for ear swelling consisted of mice that were injected with PBS instead of RP23. Negative or irritant controls consisted of a group of mice that received the DNFB challenge, but not the sensitisation. The average of the change in ear thickness from this control group was subtracted from the change in ear thickness of other samples to account for non-specific irritation due to the application of DNFB, olive oil and acetone.
The inventors then conducted additional in vivo studies, using a model of contact hypersensitivity, to determine the portion of RP23 responsible for its immunomodulatory activity. Mice received one injection of peptide (10 nmol) subcutaneously at the abdomen, seven days prior to sensitisation of the skin with a contact irritant (DNFB). […]

Data set [3] deals with C57BL/6 mice. Particulars: mouse, in vivo.
Procedure: AF594-RP23^+ cells were identified by flow cytometry 24 hours after administration to C57BL/6 mice. (A) RP23 was injected subcutaneously at the lower back. […] (B) RP23 was delivered to the lungs by intranasal instillation. The percentage distribution of total RP23^+ leukocytes amongst immune cell subsets in the lungs is shown. Data are the means+/−SEM (n=4).
AF594-RP23+ cells were identified by flow cytometry 24 hours after administration to C57BL/6 mice.
Where [4] appears, read: daily topical 0.05% cream, 30 mgs back, 10 mgs ear.

In the case of `CCC(=O)OCC(=O)[C@@]1(OC(=O)CC)[C@@H](C)C[C@H]2[C@@H]3CCC4=CC(=O)C=C[C@]4(C)[C@@]3(F)[C@@H](O)C[C@@]21C` [betamethasone dipropionate, reference compound], in the data set on C57BL/6 mice [1] (setting [4]), the spleen weight entry is recorded as “substantial reductions in spleen weight” and the weight loss entry is listed as “greater degree of weight loss”. In addition, the “clinical scores (PASI), protective effect as the disease progressed” value in the data set with C57BL/6 mice [1] (prophylactic: injection day -1, BD day 0, later time points) was “protective effect from BD alone was lost”. Also, the “systemic immune suppression / locality of effect” value with C57BL/6 mice [1] (spleen weight at day 5, distal ear thickness (FIG. 4d)) was “caused unwanted systemic immune suppression”.

As to “(Gd)DOTA-KKKK-PEG-TPGTQSPFFLLLLLTVLTVV (KKKK[PEG]TPGTQSPFF[Ala(3-Me-diazirin-3-yl)][Ala(3-Me-diazirin-3-yl)][Ala(3-Me-diazirin-3-yl)][Ala(3-Me-diazirin-3-yl)][Ala(3-Me-diazirin-3-yl)]TVLTVV; not fully specified (N-terminus); reading uncertain; also: Gd chelated by DOTA; listed as Homo sapiens) [SEQ ID NO: 32]”, the “specific increase in ear thickness” value in the data set with C57BL/6 mice [2] is “confirmed”.

Regarding “AF594-KKKK-PEG-MTPGTQSPFFLLLLLTVLTVV (KKKKMTPGTQSPFFLLLLLTVLTVV; AF594-KKKK-PEG N-terminal; (1)..(1) Alexa Fluor 594 backbone modification; (4)..(5) polyethylene glycol (PEG) backbone modification between residues 4 and 5; listed as Homo sapiens) [SEQ ID NO: 21]”, the “inflammatory response (ear thickness over 72 hours)” value in the data set on C57BL/6 mice [2] was “led to a reduced inflammatory response”. In the data set on C57BL/6 mice [3], the “cells capturing the peptide in the lung” value was “primarily captured by neutrophils, alveolar macrophages and DC”; the “cells capturing the peptide in the skin” value is recorded as “primarily captured in the skin by neutrophils (CD11 b+Ly6G+) or CD11 b+ myeloid cell subsets”.

Turning to “Biotin-KKKK-PEG-TPGTQSPFFLLLLL*TVLTVV, wherein L* is photoleucine [SEQ ID NO: 35]”, the “specific increase in ear thickness” value in the data set on C57BL/6 mice [2] is “confirmed”.

With “Biotin-KKKK-peg-QLTLTFVPSTLGFL*TLPVLV (no N-term Met) [scrambled variant of SEQ ID NO. 35, reference compound]”, in the data set on C57BL/6 mice [2], the “specific increase in ear thickness” value is “did not have a reduction in ear inflammation”.

“KKKKGGGMTPGTQSPFFLLLLLTVLTVV (listed as Homo sapiens) [SEQ ID NO: 22]”: the “inflammatory response (ear thickness over 72 hours)” value in the data set with C57BL/6 mice [2] was “led to a reduced inflammatory response”.

As for “LLLLLTVLTVV (listed as Homo sapiens) [SEQ ID NO: 2]”, the “inflammatory response (ear thickness over 72 hours)” value in the data set on C57BL/6 mice [2] is given as “led to a reduced inflammatory response”.

In the case of “MTPGTQSPFFLLLLLTVLTVV (listed as Homo sapiens) [SEQ ID NO: 3]”, the “ear swelling, sequence specificity” value in the data set on C57BL/6 mice [2] (subcutaneous seven days prior to sensitising with DNFB (FIG. 3a)) is “the effect was specific to the SEQ ID NO: 3 sequence”.
